This is an account of results in PubChem BioAssay (NCI).

Test systems include COLO 205 colon; SF-295 CNS; SNB-75 CNS; MDA-MB-435; NCI/ADR-RES ovarian; NCI-H522 lung; OVCAR-4 ovarian; SR leukemia; UO-31 renal; MCF7 breast.
What all share (assay): NCI tumour cell line growth inhibition, 48 h

“And” between values parts separate entries of the source, which are not always exact repeats. Equal entries are not always repeated.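 Tested at 5 concentrations; 48 h exposure; 96-well plates; endpoints linearly interpolated, else capped at highest concentration. GI50 is the concentration that inhibits growth by half. TGI: total growth inhibition.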 Starred links: 1 amine or outer side, 2 acyl side, 3 side chain; linkers in the order of their positions; H or OH if unused. Positions of bridges follow the written chain, without caps; N, C: chain ends. Non-standard residues stand in square brackets, D forms with d. Residues, ends and D or L forms follow the SMILES beside them. Chains are numbered I, II in the order given. Actinocin(1to9) = Cc1c2oc3c(C)ccc(C(=O)[*:2])c3nc-2c(C(=O)[*:1])c(N)c1=O; NMeV = CN[CH](C(=O)O)C(C)C; Sar = CNCC(=O)O

As to `COc1cc2oc(=O)ccc2cc1C(=O)CC(C)C`, the TGI was over 100 µM with COLO 205 colon; over 100 µM in the assay with SF-295 CNS; over 100 µM in the assay on SNB-75 CNS; over 100 µM in the assay with MDA-MB-435; over 100 µM with NCI/ADR-RES ovarian; 56.4 µM in the assay with NCI-H522 lung. Further, the TGI in the assay with OVCAR-4 ovarian, with SR leukemia, with UO-31 renal and in the assay with MCF7 breast was over 100 µM in each case.
With `CC(C)(C)OC(=O)NC(CCCCNC(=O)OCc1ccccc1)C(=O)NCCNc1ccc(NCCNC(=O)C(CCCCNC(=O)OCc2ccccc2)NC(=O)OC(C)(C)C)c2c1C(=O)c1ccccc1C2=O` (stereo unspecified), the TGI was over 100 µM with COLO 205 colon; over 100 µM with SF-295 CNS; 70.4 µM in the assay with SNB-75 CNS; over 100 µM in the assay with MDA-MB-435; over 100 µM in the assay with NCI/ADR-RES ovarian; 93.3 µM in the assay on NCI-H522 lung. The TGI is over 100 µM in the assay on OVCAR-4 ovarian, over 100 µM in the assay with SR leukemia, over 100 µM in the assay on UO-31 renal and 27.2 µM in the assay on MCF7 breast.
Turning to `CC(=O)OC1CC[C@@]2(C)C(=CC[C@@H]3[C@@H]2CC[C@]2(C)Nc4nn(S(C)(=O)=O)cc4C[C@@H]32)C1` (stereo partly specified), the TGI in the assay on COLO 205 colon is over 100 µM; in the assay on SF-295 CNS, over 100 µM; with SNB-75 CNS it was over 100 µM; in the assay on MDA-MB-435 it was 50.1 µM; with NCI/ADR-RES ovarian it was over 100 µM; in the assay with NCI-H522 lung it was over 100 µM. For the same compound, the TGI in the assay with SR leukemia is over 100 µM; with UO-31 renal, over 100 µM; with MCF7 breast, 40.7 µM.
For the compound `O=C(CSc1nc2ccc([N+](=O)[O-])cc2s1)c1ccc2ccccc2c1`, the TGI in the assay on COLO 205 colon, in the assay on SF-295 CNS, in the assay on SNB-75 CNS, in the assay on MDA-MB-435, with NCI/ADR-RES ovarian and with NCI-H522 lung was over 100 µM each time. Besides, the TGI in the assay with OVCAR-4 ovarian, in the assay on UO-31 renal and in the assay with MCF7 breast was over 100 µM each time.
On to `Cn1c(=O)[nH]c2nncnc2c1=O`, for which the TGI was 501 µM in the assay with COLO 205 colon; 325 µM with SF-295 CNS; 117 µM in the assay with SNB-75 CNS; over 625 µM in the assay with NCI/ADR-RES ovarian; over 516 µM in the assay with NCI-H522 lung; over 319 µM in the assay with OVCAR-4 ovarian. The figures for the TGI in the assay with UO-31 renal and in the assay with MCF7 breast were 358 µM and over 501 µM, respectively.
Take `Nc1ncnc2c1sc1nc3ccccc3n12`: the TGI in the assay on COLO 205 colon is over 100 µM; in the assay on SF-295 CNS, over 100 µM; with SNB-75 CNS, over 51.2 µM; with MDA-MB-435, over 100 µM; in the assay on NCI/ADR-RES ovarian it was over 100 µM; with NCI-H522 lung, over 95.8 µM. Besides, the TGI in the assay on OVCAR-4 ovarian, in the assay on UO-31 renal and in the assay with MCF7 breast was over 100 µM in each case.
Consider `COCC1CCCN1c1ccc(C=N/C(C#N)=C(\N)C#N)cc1` (stereo unspecified), for which the GI50 was over 100 µM in the assay with COLO 205 colon; over 100 µM in the assay on SF-295 CNS; 23.2 µM with SNB-75 CNS; over 100 µM with MDA-MB-435; over 100 µM in the assay on NCI/ADR-RES ovarian; 15.8 µM with NCI-H522 lung. Moreover, the GI50 in the assay with OVCAR-4 ovarian is over 100 µM; in the assay on UO-31 renal, 4.98 µM; in the assay with MCF7 breast, 33.4 µM. The TGI in the assay with COLO 205 colon is over 100 µM; with SF-295 CNS it was over 100 µM; in the assay with SNB-75 CNS it was 58.1 µM; in the assay with MDA-MB-435, over 100 µM; in the assay on NCI/ADR-RES ovarian, over 100 µM; in the assay with NCI-H522 lung, 56.2 µM. Moreover, the TGI in the assay with OVCAR-4 ovarian, with UO-31 renal and with MCF7 breast was over 100 µM in each case.
With `Clc1ccccc1/C=c1\nc(-c2ccccc2)n2c1nc1ccccc12`, the TGI is over 100 µM in the assay with COLO 205 colon; 31.2 µM with SF-295 CNS; over 100 µM in the assay on MDA-MB-435; over 100 µM with NCI/ADR-RES ovarian; over 100 µM in the assay on OVCAR-4 ovarian; over 100 µM in the assay on UO-31 renal. Also, the TGI in the assay on MCF7 breast is over 100 µM.
As for `COc1ccc(C(=O)C2=NON3OC23C(=O)c2ccc(OC)cc2)cc1` (stereo unspecified), the TGI in the assay on COLO 205 colon was determined as 21.7 µM; with SF-295 CNS it was 34.1 µM; in the assay on SNB-75 CNS, 43.6 µM; with NCI-H522 lung it was 3.68 µM; with OVCAR-4 ovarian it was 16.2 µM; in the assay on UO-31 renal, 28 µM.
Consider `Cc1coc2c1C[C@@]1(C)[C@H](CCC[C@@H]1C)[C@H]2O`, for which the TGI is over 100 µM in the assay with COLO 205 colon; over 100 µM in the assay with SF-295 CNS; 92.1 µM in the assay with MDA-MB-435; 68.3 µM in the assay on NCI/ADR-RES ovarian; 90.5 µM with NCI-H522 lung; 68.4 µM in the assay with OVCAR-4 ovarian. Besides, the TGI in the assay on SR leukemia worked out at 64.8 µM; in the assay with MCF7 breast, 95.7 µM.
With `O=c1[nH]c(Nc2ccc(Cl)c(C(F)(F)F)c2)nc2nc[nH]c12`, the TGI in the assay with COLO 205 colon was over 100 µM; in the assay with SF-295 CNS, over 100 µM; with SNB-75 CNS, over 100 µM; in the assay with MDA-MB-435, over 100 µM; with NCI/ADR-RES ovarian, over 100 µM; in the assay with NCI-H522 lung, 34.3 µM. The TGI with OVCAR-4 ovarian, in the assay with UO-31 renal and in the assay with MCF7 breast was over 100 µM in each case.
In the case of `COCCNCc1ccc(-c2cc3nccc(Oc4ccc(NC(=S)NC(=O)Cc5ccc(F)cc5)cc4F)c3s2)nc1`, the GI50 was 2.02 µM with COLO 205 colon, 2.02 µM in the assay with NCI/ADR-RES ovarian and 2.51 µM in the assay on NCI-H522 lung. Moreover, the TGI in the assay with COLO 205 colon came out at 4.3 µM; with NCI/ADR-RES ovarian it was 5.2 µM; with NCI-H522 lung it was 6.5 µM.
For the compound `CC(C)(C)OC(=O)n1c2ccccc2c2c(=O)nc(N3CCCCC3)sc21`, the TGI in the assay on COLO 205 colon, with SF-295 CNS, in the assay with SNB-75 CNS, with MDA-MB-435, in the assay on NCI/ADR-RES ovarian and with NCI-H522 lung was over 100 µM each time. Besides, the TGI in the assay with OVCAR-4 ovarian is over 100 µM; with SR leukemia, over 100 µM; in the assay with UO-31 renal, 44.9 µM.
Regarding `O=c1ccc2nc3cc(Br)ccc3sc-2c1`, the TGI in the assay on COLO 205 colon, in the assay with SF-295 CNS, in the assay with SNB-75 CNS, in the assay on NCI-H522 lung, in the assay on OVCAR-4 ovarian and in the assay with SR leukemia was over 100 µM each time. In the assay on UO-31 renal, this compound displayed a TGI of over 100 µM.
Consider `OCc1cn(C(c2ccccc2)(c2ccccc2)c2ccccc2)cn1`, for which the TGI in the assay on COLO 205 colon is over 100 µM; in the assay with SF-295 CNS, 89.7 µM; in the assay with SNB-75 CNS, 68.5 µM; in the assay with MDA-MB-435, over 100 µM; in the assay with NCI/ADR-RES ovarian it was over 100 µM; in the assay with NCI-H522 lung, over 100 µM. Besides, the TGI in the assay with OVCAR-4 ovarian, with SR leukemia and in the assay with UO-31 renal was over 100 µM in each case.
As for `N#CC12Cc3cc4c(cc3-c3cccc(c31)CCN2C(=O)c1ccccc1)OCO4` (stereo unspecified), the TGI in the assay on COLO 205 colon is over 100 µM; in the assay on SF-295 CNS it was over 100 µM; with SNB-75 CNS, 62.8 µM; with SR leukemia it was over 100 µM; in the assay with UO-31 renal, over 100 µM.
On to `CCOC(=O)C(/C(=N/S(=O)(=O)c1cc(C)c(Cl)cc1[S-])[n+]1ccc(N(C)C)cc1)=C(/O)c1ccc([N+](=O)[O-])cc1`, for which the TGI in the assay with COLO 205 colon is 90.2 µM; with SF-295 CNS, 54.1 µM; in the assay on MDA-MB-435, over 100 µM; in the assay on NCI/ADR-RES ovarian, over 100 µM; in the assay with NCI-H522 lung it was 34.6 µM; in the assay with OVCAR-4 ovarian it was 88.6 µM. Besides, the TGI in the assay with SR leukemia, in the assay with UO-31 renal and with MCF7 breast was over 100 µM each time.
Take `OC(c1ccccc1)(c1ccccc1)c1nccc2ccccc12`: the TGI in the assay on COLO 205 colon is over 100 µM; with SF-295 CNS, 36.2 µM; in the assay on MDA-MB-435 it was over 100 µM; in the assay on NCI/ADR-RES ovarian, over 100 µM; in the assay on NCI-H522 lung, 40.8 µM; with OVCAR-4 ovarian it was over 100 µM. In addition, the TGI with SR leukemia, in the assay on UO-31 renal and in the assay with MCF7 breast was over 100 µM each time.
As to `CCC(C)C1NC(=O)C(NC(=O)c2c3nc4c(C(=O)NC5C(=O)NC(C(C)CC)C(=O)N6CCCC6C(=O)N(C)CC(=O)N(C)C(C(C)C)C(=O)OC5C)ccc(C)c4oc-3c(C)c(=O)c2N)C(C)OC(=O)C(C(C)C)N(C)C(=O)CN(C)C(=O)C2CCCN2C1=O` (stereo unspecified) (I: TIP[Sar][NMeV] / II: TIP[Sar][NMeV]; ester I:1-I:C, II:1-II:C; linker I:N-II:N via Actinocin(1to9); configuration not given here), the TGI in the assay on COLO 205 colon was 0.00309 µM; with SNB-75 CNS, 0.0329 µM; with MDA-MB-435, 0.0169 µM; in the assay on NCI/ADR-RES ovarian, 2.63 µM; in the assay with NCI-H522 lung it was 0.00176 µM; in the assay on OVCAR-4 ovarian, 0.273 µM. In addition, the TGI in the assay with SR leukemia was 0.00257 µM; with UO-31 renal it was 0.143 µM and 0.316 µM.
Consider `COc1ccc2nc3c(C(=O)NCCN(C)C)cccc3cc2c1`, for which the TGI in the assay with COLO 205 colon was 3.74 µM; in the assay with SF-295 CNS, 6.2 µM; with SNB-75 CNS, 9 µM; with NCI/ADR-RES ovarian, 4.99 µM; with OVCAR-4 ovarian it was 8.49 µM; in the assay with UO-31 renal it was 3.97 µM. In the assay with MCF7 breast, the TGI was 7.22 µM.
`Cn1cnc([N+](=O)[O-])c1Sc1nc(N)nc2c1ncn2C1OC(CO)C(O)C1O` (stereo unspecified): the TGI with COLO 205 colon is 23.8 µM; with SF-295 CNS, over 72.6 µM; in the assay on SNB-75 CNS, over 84.9 µM; in the assay with MDA-MB-435 it was 29.7 µM; in the assay on NCI/ADR-RES ovarian, over 100 µM; with NCI-H522 lung it was 33.5 µM. Besides, the TGI is over 100 µM in the assay with OVCAR-4 ovarian, over 35.6 µM with SR leukemia and 37.4 µM in the assay with UO-31 renal.
